Experiments:
Assay in all cases: microbe, parasite or virus in culture
C. albicans wild-type = system: C. albicans wild-type; design: species or system whole yeast cells; macro tube broth dilution MIC in YEPD at 30 C, visual clearness of medium; conditions: Candida albicans, 48 h, YEPD medium
[1] = system: Candida albicans C. a.^f (Table 4); design: species or system yeast; tube dilution MIC in YEPD (± 1.2 M sorbitol), complete growth inhibition by turbidity; conditions: 48 h, YEPD + 1.2 M sorbitol
Description: (§1) Standard YEPD (Yeast Extract, Peptone, Dextrose) ([Sherman, 1990]), YEPD+S (YEPD with 1.2M sorbitol), YES (Yeast Extract, Dextrose and Supplements of Adenine, Histidine, Leucine, Uracil and Lysine) ([Alfa et al., 1993]) and YES+S (YES with 1.2 M sorbitol) ([Ribas et al., 1991]; [Ishiguro et al., 1997]), media were used for determination of MIC values of the tested compounds. A stock solution of 10 mg/ml of each tested compounds was prepared in DMSO and serial dilutions in DMSO were prepared. The final concentration of DMSO was 2% in the YEPD medium. […] The serial dilutions of compounds were dispensed into test tubes with 1 ml of YEPD or YEPD+S to make final concentrations of 200, 100, 50, 25, 12.5, 6.26, 3.125, 1.6, 0.8 and 0.4 μg/ml. The tested yeast strains were previously grown in YEPD, YEPD+S, YES or YES+S agar plates at 30°C for 48 h. For inoculation of YEPD or YEPD+S macro test tubes a suspension of tested fungus was produced with 10^5 cfu/ml (cfu - colony forming unit). 10 μl of suspension was used for inoculation of each tube. After 48 h incubation at 30°C the tubes were checked. The MIC value is the lowest concentration of the tested compound that could inhibit the fungal growth and the medium remained clear. From each tube 10 μl culture was plated on YEPD agar medium to check the contamination. The MIC tests were carried out in three parallels. Micro-culture assays of large numbers of samples were analyzed as described) ([Martins et al., 2011]). Essentially early log-phase cells were grown in YEPD, YEPD+S, YES or YES+S (1.2 M sorbitol) medium at 30°C, and diluted to cell density of 4 X 10^6 cells/ml in YEPD, YEPD+S, YES or YES+S medium and aliquots of 100 μl were dispensed into each small test tube (3 ml test tube size). Then, another 100 μl of YEPD, YEPD+S, YES or YES+S with the corresponding dilution of each compound at 2X concentration (4% DMSO) was added. The final volume was 200 μl, with the cells diluted to of 2 X 10^6 cells/ml and each compound diluted to 1X final concentration, containing increasing concentrations of antifungal (0, 1, 2, 5, 10, 20, 50, 100 and 200 μg/ml) or an equivalent volume of solvent (2% DMSO). The cells were grown at 30°C in an orbital roller and turbidity was analyzed after 24 and 48 h of incubation. The MIC was determined as the minimal concentration of tested compound that produced complete cell growth inhibition and kept the medium clear. The MIC values were calculated from at least three independent experiments.

[2] = system: Candida albicans C. a.^g (Table 4); design: species or system yeast; tube dilution MIC in YEPD (± 1.2 M sorbitol), complete growth inhibition by turbidity; conditions: 48 h, YEPD + 1.2 M sorbitol
Description: as §1

[3] = system: Candida albicans C. a.^h (Table 4); design: species or system yeast; tube dilution MIC in YEPD (± 1.2 M sorbitol), complete growth inhibition by turbidity; conditions: 48 h, YEPD + 1.2 M sorbitol
Description: as §1

[4] = system: T1, Saccharomyces cerevisiae S. c.^d (wild-type CVX12-3A); design: species or system yeast; tube dilution MIC in YEPD (± 1.2 M sorbitol), complete growth inhibition by turbidity; conditions: 48 h, YEPD + 1.2 M sorbitol
T1 construct: CVX12-3A
Description: as §1

[5] = system: T2, Schizosaccharomyces pombe S. p.^a (wild-type 972 h-); design: species or system yeast; tube dilution MIC in YEPD (± 1.2 M sorbitol), complete growth inhibition by turbidity; conditions: 48 h, YEPD + 1.2 M sorbitol
T2 construct: 972 h-
Description: as §1

Compound	MIC (C. albicans wild-type; C. albicans strain f) [µg/mL]	MIC (C. albicans wild-type; C. albicans strain g) [µg/mL]	MIC (C. albicans wild-type; C. albicans strain h) [µg/mL]	MIC [1] [µg/mL]	MIC [2] [µg/mL]	MIC [3] [µg/mL]	MIC [4] [µg/mL]	MIC [5] [µg/mL]
O=c1oc2ccccc2cc1-c1ccccc1CO [compound 15]	> 100	> 100	> 100	25	> 200	> 200	100	200
O=c1oc2ccc3ccccc3c2cc1-c1ccccc1CO [compound 12]	> 200	> 200	> 200	100	200	100	50	50

Reference: article PMC6689975, “Novel Cell Wall Antifungals Reveal a Special Synergistic Activity in pbr1 Mutants Resistant to the Glucan Synthesis Antifungals Papulacandins and Echinocandins” (Frontiers in Microbiology, 2019)
